Assays:
[1] = Stability of COMPOUND in aqueous solution at pH 9.0 with boric acid buffer at different buffer concentrations, 75° C.; assay type: physicochemical
Description: (§1) Sample Preparation for High Performance Liquid Chromatography and Method Used • 20 μL of the respective aqueous pharmaceutical composition was filled into a HPLC vial. • 980 μL water was added (dilution factor 50) prior HPLC analysis. • HPLC-UV method used: • HPLC system: High pressure mixing Shimadzu Nexera X2 • Flow: 1.5 mL/min • Column temperature: 50° C. • Autosampler temperature: 25° C. • Injection volume: 1 μL • Column: Phenomenex Gemini 5.0 μm 110 Å, 50×2.0 mm (n° 184) • Wavelength: DAD+250 nm • Solvent A: tris(hydroxymethyl)aminomethane buffer 50 mM pH 9 (adjusted with HCl)+5% (v/v) acetonitrile • Solvent B: Acetonitrile+5% (v/v) tris(hydroxymethyl)aminomethane buffer 50 mM pH 9 (adjusted with HCl) • Gradient: […]
Stability of COMPOUND in aqueous solution at pH 9.0 in the presence of boric acid buffer at different buffer concentrations
Formulation compositions assessing the impact of buffer capacity on formulation stability

[2] = rat, at equivalent antithrombotic efficacy, versus ticagrelor; cited from earlier work
[3] = Stability of COMPOUND in aqueous solution at different pH values in the absence of a buffer (HPLC); assay type: physicochemical
Description: For instance, a solution of COMPOUND (32 mg/mL) in water at pH 7 (adjusted with aqueous NaOH solution) contained only 33.5% COMPOUND, but 65.2% (R)-2-(6-((S)-3-methoxypyrrolidin-1-yl)-2-phenylpyrimidine-4-carboxamido)-3-phosphonopropanoic acid (hereinafter DEGRADATION COMPOUND) if stored at 60° C. for 1 week (98.6% COMPOUND at t=0, i.e. immediately after preparation of the solution). The amount of DEGRADATION COMPOUND dropped to 24.4% and 10.0% for corresponding aqueous solutions stored under the same conditions but adjusted to pH 8.0 and 9.0, respectively.
as §1
Aqueous formulations containing 32 mg/mL (52 mM) COMPOUND were titrated to pH 7.0, 8.0, and 9.0 using aqueous 1N NaOH solution.
The different formulations were filled into 1 mL sterile, pre-fillable glass syringes after sterile filtration. Samples were analyzed at t=0 and after 1-week storage at 60° C.

[4] = pH shift of unbuffered, pH-adjusted aqueous solution of COMPOUND on storage; assay type: physicochemical; conditions: initial pH 9.0, 2 days at 70° C.
platelet aggregation = conditions: 15 minutes after subcutaneous administration, doses of 8 mg, 16 mg and 32 mg; cited from earlier work
platelet = conditions: patients with AMI, cited from earlier work
[5] = Long-term stability of COMPOUND in 60 mM arginine buffer under different storage conditions (UPLC); assay type: physicochemical
Description: In a 10 L glass reactor, L-arginine (104 g, 0.60 mol) was added under stirring to water for injection (7.01 kg). COMPOUND hydrochloride (339 g, 0.52 mol) was added portion wise to the solution and the pH value was adjusted to pH=9.0 by addition of 1.0 M aqueous NaOH solution (1.18 kg). Water for injection was added to a total weight of the solution of 10.15 kg.
For stability testing the test samples were prepared by filling 0.54 mL of the above solution into prefillable 1 mL glass syringes with stacked in needle and stored under the conditions given in table 14 and 15. The samples were analysed after the given timepoints by ultra-performance liquid chromatography (UPLC) using the following conditions: • Equipment: • UPLC system, with data acquisition system and UV detection
Mobile phase A: Weigh 3.08 g of ammonium acetate and 3.26 g of ammonium hexafluorophosphate in a 2 L bottle. Dissolve in 1900 mL H2O. Add 100 mL of acetonitrile.
Mobile phase B: Weigh 0.77 g of ammonium acetate in a 1 L bottle. Dissolve in 50 mL H2O. Add 950 mL of acetonitrile.
Diluent: Mix 920 mL of Mobile Phase A with 80 mL Mobile phase B.
Reference standard solution: 0.32 mg/mL of COMPOUND reference standard in diluent.
Sample solution: The samples were diluted to 0.32 mg/mL of COMPOUND (based on amount of COMPOUND in the initial solution) with diluent
Column: 100 mm×3.0 mm, 3 μm C18 column (e.g. YMC Triart C18 ExRS)
Detection wavelength: 246 nm

CCCCOC(=O)N1CCN(C(=O)[C@H](CP(=O)(O)O)NC(=O)c2cc(N3CC[C@H](OC)C3)nc(-c3ccccc3)n2)CC1 [COMPOUND, 4-((R)-2-{[6-((S)-3-methoxy-pyrrolidin-1-yl)-2-phenyl-pyrimidine-4-carbonyl]-amino}-3-phosphono-propionyl)-piperazine-1-carboxylic acid butyl ester]
Content of COMPOUND ([1]; 0 mM B(OH)3, pH 9.0, 75° C., 0 h): 100.00 Area %
Content of COMPOUND ([1]; 0 mM B(OH)3, pH 9.0, 75° C., 24 h): 96.16 Area %
Content of COMPOUND ([1]; 0 mM B(OH)3, pH 9.0, 75° C., 48 h): 89.46 Area %
Content of COMPOUND ([1]; 0 mM B(OH)3, pH 9.0, 75° C., 120 h): 64.89 Area %
Content of COMPOUND ([1]; 0 mM B(OH)3, pH 9.0, 75° C., 168 h): 49.45 Area %
Content of COMPOUND ([1]; 20 mM B(OH)3, pH 9.0, 75° C., 0 h): 100.00 Area %
Content of COMPOUND ([1]; 20 mM B(OH)3, pH 9.0, 75° C., 24 h): 94.61 Area %
Content of COMPOUND ([1]; 20 mM B(OH)3, pH 9.0, 75° C., 48 h): 90.72 Area %
Content of COMPOUND ([1]; 20 mM B(OH)3, pH 9.0, 75° C., 120 h): 74.84 Area %
Content of COMPOUND ([1]; 20 mM B(OH)3, pH 9.0, 75° C., 168 h): 62.18 Area %
Content of COMPOUND ([1]; 60 mM B(OH)3, pH 9.0, 75° C., 0 h): 100.00 Area %
Content of COMPOUND ([1]; 60 mM B(OH)3, pH 9.0, 75° C., 24 h): 96.60 Area %
Content of COMPOUND ([1]; 60 mM B(OH)3, pH 9.0, 75° C., 48 h): 90.21 Area %
Content of COMPOUND ([1]; 60 mM B(OH)3, pH 9.0, 75° C., 120 h): 78.47 Area %
Content of COMPOUND ([1]; 60 mM B(OH)3, pH 9.0, 75° C., 168 h): 68.96 Area %
Content of COMPOUND ([1]; 100 mM B(OH)3, pH 9.0, 75° C., 0 h): 100.00 Area %
Content of COMPOUND ([1]; 100 mM B(OH)3, pH 9.0, 75° C., 24 h): 97.89 Area %
Content of COMPOUND ([1]; 100 mM B(OH)3, pH 9.0, 75° C., 48 h): 93.78 Area %
Content of COMPOUND ([1]; 100 mM B(OH)3, pH 9.0, 75° C., 120 h): 77.85 Area %
Content of COMPOUND ([1]; 100 mM B(OH)3, pH 9.0, 75° C., 168 h): 71.33 Area %
blood loss [2]: significantly less blood loss than ticagrelor
Content of COMPOUND ([3]; 32 mg/mL in water, pH 7 (NaOH), 60° C. for 1 week): 33.5%
Content of COMPOUND ([3]; 32 mg/mL in water, pH 7 (NaOH), t=0): 98.6%
Content of COMPOUND ([3]; no buffer, pH 7.0, t = 0): 98.55 Area %
Content of COMPOUND ([3]; no buffer, pH 7.0, t = 1 week at 60° C.): 33.5 Area %
Content of COMPOUND ([3]; no buffer, pH 8.0, t = 0): 98.65 Area %
Content of COMPOUND ([3]; no buffer, pH 8.0, t = 1 week at 60° C.): 74.7 Area %
Content of COMPOUND ([3]; no buffer, pH 9.0, t = 0): 98.60 Area %
Content of COMPOUND ([3]; no buffer, pH 9.0, t = 1 week at 60° C.): 88.7 Area %
pH value after storage [4]: 8.5
inhibition of platelet aggregation (platelet aggregation): more than 85%
antiplatelet response (platelet; single-dose subcutaneous): profound, rapid, and dose-related antiplatelet response
safety of single-dose subcutaneous administration (platelet): safe
Amount of COMPOUND in the test samples ([5]; 5° C., 1 month): 16.9 mg
Amount of COMPOUND in the test samples ([5]; 5° C., 3 months): 16.8 mg
Amount of COMPOUND in the test samples ([5]; 5° C., 6 months): 16.6 mg
Amount of COMPOUND in the test samples ([5]; 5° C., initial): 16.9 mg
Amount of COMPOUND in the test samples ([5]; 25° C./60% RH, 1 month): 16.8 mg
Amount of COMPOUND in the test samples ([5]; 25° C./60% RH, 3 months): 16.4 mg
Amount of COMPOUND in the test samples ([5]; 25° C./60% RH, 6 months): 16.2 mg
Amount of COMPOUND in the test samples ([5]; 25° C./60% RH, 12 months): 15.9 mg
Amount of COMPOUND in the test samples ([5]; 25° C./60% RH, initial): 16.9 mg
Amount of COMPOUND in the test samples ([5]; 30° C./75% RH, 1 month): 16.7 mg
Amount of COMPOUND in the test samples ([5]; 30° C./75% RH, 3 months): 16.2 mg
Amount of COMPOUND in the test samples ([5]; 30° C./75% RH, 6 months): 15.9 mg
Amount of COMPOUND in the test samples ([5]; 30° C./75% RH, 12 months): 15.2 mg
Amount of COMPOUND in the test samples ([5]; 30° C./75% RH, initial): 16.9 mg
Amount of COMPOUND in the test samples ([5]; 40° C./75% RH, 1 month): 16.2 mg
Amount of COMPOUND in the test samples ([5]; 40° C./75% RH, 3 months): 15.1 mg
Amount of COMPOUND in the test samples ([5]; 40° C./75% RH, 6 months): 13.3 mg
Amount of COMPOUND in the test samples ([5]; 40° C./75% RH, initial): 16.9 mg
